Test results published in paper PMC11783601, “Analogue-Sensitive Inhibition of Histone Demethylases Uncovers Member-Specific Function in Ribosomal Protein Synthesis” (Journal of the American Chemical Society, 2025).
Entries after “also recorded” stand apart in the source; their conditions may differ.

Experiments:
HEK293T cells = assay: Cell permeability and hydrolysis to 6, LC-HRMS of cell extracts; format: in vitro ADME, human; conditions: 200 µM, 24 hours, LC-HRMS total ion counts
Description: We next examined the orthogonal pairs for their ability to modulate lysine demethylation on the chromosomal histone in cultured human cells (Figure 4A). To this end, we generated the F185A mutation in full-length KDM4A carrying all of the functional domains. Furthermore, to enhance cell permeability, we synthesized two chemoselective ester prodrugs 6A and 6B carrying either an n-octyl or a trifluoromethyl benzyl ester as the lipophilic moiety, respectively (Figures 4A, S5, and S6, Scheme S3).[46],[47] We confirmed the cell permeability of 6A and 6B and their subsequent hydrolysis to 6 by analyzing extracts of compound-treated HEK293T cells using LC-HRMS. […]
12. Examining cell permeability and toxicity of 6A and 6B
In a T-25 cell culture flask, HEK293T cells were treated with either 200 µM L-Leu octyl-ester NOG 6A, L-Leu TFMB-ester NOG 6B, or corresponding volume of DMSO. Following 24 hours of incubation at 37 °C, media was removed and 3mL of 80:20 methanol: water was added while the flasks with cells were on dry ice. The flasks were then incubated in -80 °C for 10 minutes to allow cell lysis. […] Relative de-esterification was determined by subtracting abundance of each treatment sample by the DMSO control and indicated molecular weights followed by dividing the abundance of L-Leu NOG molecular weight by the total abundance of esterified and de-esterified L-Leu 6 for each sample. […]

[1] = system: rRNA transcription in HEK293T cells; assay: Fixed cell immunofluorescence staining for H3K9me3 and 5FU (BrdU antibody) incorporation into rRNA; format: cell-based, human
Method: Upregulation of protein synthesis is linked to enhanced ribosomal biogenesis driven by the expression and coordinated assembly of the ribosomal RNAs (rRNAs). To systematically investigate the role of KDM4A in rRNA activation, HEK293T cells expressing wild type KDM4A or asKDM4A were briefly (∼15 min) exposed to 5-fluorouridine (5FU), a uridine analogue known to rapidly incorporate into nascent RNAs, in the presence of cell-permeable n-octyl IOX1 or NOL derivative 6B, respectively (Figure 6A). Given that there are about 350 copies of rDNA in the human genome, brief exposure to 5FU ensures the labeling of rRNAs primarily.[49][52] The cells were then fixed and stained with H3K9me3 antibody, along with BrdU antibody which recognizes 5FU, to examine any correlation between histone demethylation and rRNA expression using high-resolution immunofluorescence imaging. Both wild type KDM4A and F185A mutant led to robust increase in 5FU incorporated rRNA levels, while reduction in H3K9me3 signals was observed (Figures 6B,C and S36). […]
19. Fixed cell immunofluorescence staining
Cells were grown on poly-D-lysine (Gibco A3890401) treated glass coverslips (ThermoScientific 12-545-81P) overnight and transfected the next day with 300 ng KDM4A WT/F185A using […] of lipofectamine 2000 (Invitrogen 11668019). The cells were incubated overnight and treated with indicated inhibitor at varying time points. When probing rRNA transcription, cells were incubated with 2 mM 5-Fluorouridine (Sigma F5130) for 15 minutes. […]
20. Quantification of fixed-cell imaging data
TIF images obtained from confocal microscopy experiments were quantified in ImageJ. […]
The mean fluorescent signal was then measured. […]
For the time dependent imaging, cells containing the transfected KDM4A mutant were identified by their HA signal. […] The mean signal was then measured for H3K9me3 or BrdU only within the cells expressing the KDM4A mutant. To compare changes in H3K9me3 or BrdU between trials, the quantification values were normalized to the mean signal at t=0. […]

SMILES	membrane permeability and hydrolysis to 6 (HEK293T cells)	histone demethylation and 5FU incorporation ([1]; HEK293T cells overexpressing wild type KDM4A, 10 µM n-octyl IOX1)	5FU incorporation into rRNA ([1]; HEK293T cells expressing F185A)	H3K9me3 levels ([1]; HEK293T cells expressing F185A)
CCCCCCCCOC(=O)C(=O)NC(CC(C)C)C(=O)O [6A, L-Leu octyl-ester NOG]	comparable membrane permeability	–	–	–
CCCCCCCCOC(=O)c1ccc(O)c2ncccc12 [n-octyl IOX1]	–	inhibited; also recorded: repressed histone demethylation and 5FU incorporation	–	–
CC(C)CC(NC(=O)C(=O)OCc1cccc(C(F)(F)F)c1)C(=O)O [6B, L-Leu TFMB-ester NOG]	comparable membrane permeability	–	attenuated 5FU incorporation in a dose–response manner	re-emergence of H3K9me3 levels
